Columns and labels:
[1] = Metabolism-induced toxicity assay, cell viability; type: cell-based; details: human, HepG2 cells infected with Ad-3A4 (expressing CYP3A4); HepG2 transfected with Ad-3A4 at 40 MOI, 24 h exposure; read-out: calculated IC50 (cell viability)
Experimental: Metabolism-induced toxicity assay was performed with acetaminophen on HepG2 cells expressing CYP3A4. After transfecting HepG2 cells with Ad-3A4 at 40 MOI, HepG2 cells were exposed to acetaminophen at varying concentrations for 24 h. HepG2 cell viability decreased as acetaminophen concentration increased.

[2] = test system: parent HepG2 cells (control); assay: Acetaminophen toxicity, cell viability; type: cell-based; details: Homo sapiens, 24 h exposure, read-out: calculated IC50 (cell viability)

CC(=O)Nc1ccc(O)cc1 [acetaminophen]
IC50 at 24 h [1]: 7.3 mM | IC50 [2]: 17.5 mM

Source: patent publication US20110190162A1, “METHOD OF NUCLEIC ACID DELIVERY INTO THREE-DIMENSIONAL CELL CULTURE ARRAYS” (priority 2009, published 2011)
